Patent US8901337B2, “Metal complexes having dual histone deacetylase inhibitory and DNA-binding activity” (Royal College of Surgeons in Ireland, priority 2009, dated 2014)

Assays:
[1] = tested on: DNA in SW480 cells (colon cancer); assay: Pt binding to DNA in cultured cells (ICP-MS), SW480; format: cell-based; details: 2 hours of cell treatment
Procedure: (§1) Pt DNA binding of Pt complexes was measured in SW480 cells (colon cancer) and CH1 cells (lymphoma) or alternatively A2780 P and A2780 cisR cells (sensitive and resistant to cisplatin respectively). The cells were seeded in 60 mm tissue culture dishes with 10 ml of their respective medium. After overnight incubation the medium was removed and replaced with 10 ml of the respective medium containing a platinum complex giving a final concentration of 43 or 40 μM depending on the experiment. The cells were incubated with a given Pt complex for either 2 or 4 h depending on the experiment. The cells were trypsinised and centrifuged. The supernantant was removed and the cells washed twice with 1×PBS and centrifuged. The pellet was re-suspended in DNA buffer to which Proteinase K (20 mg/mL) and 10% SDS were added. After a gentle shake and incubation at 45° C. for two hours, RNAse (100 mg/mL) was added and the cells were incubated at 37° C. overnight. The volume of supernatant was noted and an equal volume of phenol was added.
The resulting mixture was shook for 10 min, then centrifuged for 10 min at 10° C. The supernatant was transferred into a new centrifuge tube (15 ml) and the volume was noted. To this was added an equal volume of phenol and chloroform/isoamylalcohol (24:1). The resulting mixture was shook for 10 min, then centrifuged for 10 min at 10° C. (3000 RPM). The supernatant was transferred into a new centrifuge tube (15 mL) and the volume was noted. To this was added an equal volume of chloroform. The resulting mixture was shook for 10 min, then centrifuged for 10 min at 10° C. The supernatant was transferred into a new centrifuge tube (15 mL) and the volume was noted. To this was added a volume that is 1/10 of the supernatant of 3 M sodium acetate (Ph 5.2) and three times the volume of cold 100% isopropanol (from freezer). The solution was shook gently until the DNA is precipitated. […] The absorbance of the DNA by was measured by UV spectrophotometry at 260 nm and 280 nm and the concentration of DNA calculated. Platinum bound to DNA was determined by ICP-MS.

[2] = tested on: A2780 P cells; assay: Morphological analysis (methylene blue/eosin and DAPI staining), A2780 P; format: cell-based, human; details: IC50 and IC75, 72 hr
Procedure: Preparations of A2780 P and A2780-cisR cells were exposed to test agents for 72 hr and stained with methylene blue and eosin^19. Drug-treated cells were grown in petri dishes, washed once with PBS, once with PBS:methanol (1:1, v/v), and then fixed in 100% (v/v) methanol for 10 min. Following fixation, cell monolayers were rinsed with anhydrous methanol and stained with methylene blue and eosin for 2 min. Monolayers were then agitated for a further 2 min, destained by rinsing under a gentle stream of water and then finally rinsed with distilled water. Phase contrast microscopy was carried out using a Ceti-phase contrast microscope.
Drug-treated cells were also stained using a DNA-binding agent commonly used to stain nuclei and visualise nuclear morphology and DNA condensation, namely 4,6-diamidino-2-phenylindole (DAPI). Briefly, a monolayer of drug-treated cells was washed in PBS and fixed with 4% (w/v) paraformaldehyde for 30 min at room temperature. These cells were then permeabilized with 0.2% (v/v) Triton X in PBS and incubated with 1 μg/ml of DAPI for 30 min. Cells were again washed three times with PBS and viewed using a fluorescent microscope with 340/380 nm excitation filter at 250× magnification. Apoptotic cells were confirmed by identification of intensely stained, fragmented nuclei and condensed chromatin.

[3] = tested on: A2780 P ovarian cancer cells; assay: Cell cycle progression, flow cytometry (propidium iodide); format: cell-based, human; details: 72 hr
Procedure: Both floating and attached cells were collected by centrifugation, washed twice in ice-cold PBS, pH 7.4, harvested by scraping with a rubber policeman, and then collected by centrifugation. The effect of drug treatment on cell cycle progression was determined using flow cytometric analysis according to the method of Nunez (2001).^21 Briefly, cell suspensions were fixed and permeabilised by vigorous addition of nine volumes of ice-cold 70% (v/v) ethanol and stored at −20° C. for a minimum of 24 h, prior to analysis. Cells at a density of approximately 1×10^6 were re-suspended in 800 μl of propidium iodide staining solution (20 μg/ml propidium iodide and 200 μg/ml RNase A in PBS, pH 7.4) and incubated in the dark at room temperature for 30 min. The percentage of cells in the sub-G1, G0/G1, S and G2/M phases of the cell cycle was determined over a range of concentrations and time points, and analysed from at least three independent experiments using Cell Quest™ software (Becton Dickinson).

[4] = tested on: A2780 cisR (cisplatin resistant ovarian cancer cells); assay: Cellular uptake of Pt (FAAS), A2780 cisR; format: cell-based, human; details: 10 μM, 24 hours treatment
[5] = tested on: DNA in A2780 cisR cells; assay: Pt binding to DNA in cultured cells (ICP-MS), A2780 cisR; format: cell-based, human; details: 4 hours of cell treatment
Procedure: as §1
The resulting mixture was shook for 10 min, then centrifuged for 10 min at 10° C. The supernatant was transferred into a new centrifuge tube (15 ml) and the volume was noted. […] The absorbance of the DNA by was measured by UV spectrophotometry at 260 nm and 280 nm and the concentration of DNA calculated. Platinum bound to DNA was determined by ICP-MS.

SMILES: [NH2][Pt]1([NH2])[O]C(=O)C(Cc2ccc(NC(=O)CCCCCCC(=O)NO)cc2)C(=O)[O]1 [cis-[Pt(NH3)2(malSAHA−2H)], cis-[Pt(NH3)2(malSAHA−2H)].3H2O]
- binding of Pt to DNA in cultured cells (in words) ([1]; SW480 and CH1 cells): binds DNA in cultured cells after 2 hours of cell treatment

SMILES: [NH2][Pt]1([NH2])[O]C(=O)C(Cc2ccc(NS(=O)(=O)c3ccc(/C=C/C(=O)NO)cc3)cc2)C(=O)[O]1 [cis-[Pt(NH3)2(malBel−2H)], cis-[Pt(NH3)2(malBel−2H)].1.5H2O]
- cellular morphology and integrity of DNA [2]: considerable thinning of the monolayer, attenuation of cells and the nuclei to be intensively stained and fragmented
- % G0/G1 ± S.E.M. ([3]; concentration equal to IC50): 16.16 ± 0.88%
- % G2/M ± S.E.M. ([3]; concentration equal to IC50): 7.91 ± 0.03%
- % S ± S.E.M. ([3]; concentration equal to IC50): 7.21 ± 0.11%
- % Sub-G1 ± S.E.M. ([3]; concentration equal to IC50): 60.86 ± 0.26%
- % G0/G1 ± S.E.M. ([3]; concentration equal to IC75): 11.75 ± 0.17%
- % G2/M ± S.E.M. ([3]; concentration equal to IC75): 8.04 ± 0.72%
- % S ± S.E.M. ([3]; concentration equal to IC75): 5.59 ± 0.36%
- % Sub-G1 ± S.E.M. ([3]; concentration equal to IC75): 67.67 ± 0.43%
- sub-G1 accumulation (in words) ([3]; A2780 P): dose dependent increase in sub-G1 accumulation compared to control cells
- Uptake of Pt complexes into A2780 cisR [4]: 42.3 ± 5.3 pmol Pt/2 × 10^6 cell
- DNA binding in A2780 cisR compared with cisplatin (in words) [5]: binds DNA in A2780 P and A2780 cisR cancer cells and to a greater extent than cisplatin

SMILES: N.N.[Cl][Pt][Cl] [cisplatin, cis-[Pt^II(NH3)2Cl2], reference compound]
- cellular morphology and integrity of DNA [2]: considerable thinning of the monolayer, attenuation of cells and the nuclei to be intensively stained and fragmented
- % G0/G1 ± S.E.M. ([3]; concentration equal to IC50): 18.58 ± 0.58%
- % G2/M ± S.E.M. ([3]; concentration equal to IC50): 5.44 ± 0.04%
- % S ± S.E.M. ([3]; concentration equal to IC50): 5.33 ± 0.13%
- % Sub-G1 ± S.E.M. ([3]; concentration equal to IC50): 64.16 ± 0.74%
- % G0/G1 ± S.E.M. ([3]; concentration equal to IC75): 20.88 ± 0.14%
- % G2/M ± S.E.M. ([3]; concentration equal to IC75): 4.73 ± 0.13%
- % S ± S.E.M. ([3]; concentration equal to IC75): 5.81 ± 0.30%
- % Sub-G1 ± S.E.M. ([3]; concentration equal to IC75): 61.81 ± 0.39%
- Uptake of Pt complexes into A2780 cisR [4]: 98 ± 11 pmol Pt/2 × 10^6 cell
- DNA-bound Pt in SW480 ([1]; 43 μM of Pt complexes): 38.5 · 10^−15 moles of Pt/μg of DNA
- DNA-bound Pt in A2780 cisR ([5]; 40 μM of Pt complexes): 665 · 10^−15 ± 6 moles of Pt/μg of DNA
